From ChEMBL document CHEMBL3045199, “Synthesis of some (E)-6-[2-(furan-2-yl)ethenyl]-1,2,4-triazin-5-ones and their biological evaluation as antitumor agents” (2013)

Experiments:
Type in all cases: functional
[1] = tested on: T47D; assay: Cytotoxicity against Homo sapiens (human) T47D cells after 48 hr by SRB assay; settings: read-out: pGI50 (converted)
[2] = tested on: BT-549; assay: Cytotoxicity against Homo sapiens (human) BT549 cells after 48 hr by SRB assay; settings: BT-549, 48 h, read-out: pGI50 (converted)
[3] = tested on: MDA-MB-231; assay: Cytotoxicity against Homo sapiens (human) MDA-MB-231 cells after 48 hr by SRB assay; settings: MDA-MB-231, 48 h, read-out: pGI50 (converted)
[4] = tested on: DU-145; assay: Cytotoxicity against Homo sapiens (human) DU145 cells after 48 hr by SRB assay; settings: DU-145, 48 h, read-out: pGI50 (converted)
[5] = tested on: PC-3; assay: Cytotoxicity against Homo sapiens (human) PC3 cells after 48 hr by SRB assay; settings: PC-3, 48 h, read-out: pGI50 (converted)
[6] = tested on: UO-31; assay: Cytotoxicity against Homo sapiens (human) UO31 cells after 48 hr by SRB assay; settings: UO-31, 48 h, read-out: pGI50 (converted)
[7] = tested on: TK-10; assay: Cytotoxicity against Homo sapiens (human) TK10 cells after 48 hr by SRB assay; settings: TK-10, 48 h, read-out: pGI50 (converted)
[8] = tested on: SN12C; assay: Cytotoxicity against Homo sapiens (human) SN12C cells after 48 hr by SRB assay; settings: read-out: pGI50 (converted)
[9] = tested on: RXF 393; assay: Cytotoxicity against Homo sapiens (human) RXF393 cells after 48 hr by SRB assay; settings: RXF 393, 48 h, read-out: pGI50 (converted)
[10] = tested on: CAKI-1; assay: Cytotoxicity against Homo sapiens (human) Caki1 cells after 48 hr by SRB assay; settings: CAKI-1, 48 h, read-out: pGI50 (converted)
[11] = tested on: A498; assay: Cytotoxicity against Homo sapiens (human) A498 cells after 48 hr by SRB assay; settings: A498, 48 h, read-out: pGI50 (converted)
[12] = tested on: ACHN; assay: Cytotoxicity against Homo sapiens (human) ACHN cells after 48 hr by SRB assay; settings: read-out: pGI50 (converted)
[13] = tested on: SK-OV-3; assay: Cytotoxicity against Homo sapiens (human) SKOV3 cells after 48 hr by SRB assay; settings: SK-OV-3, 48 h, read-out: pGI50 (converted)
[14] = tested on: NCI-H226; assay: Cytotoxicity against Homo sapiens (human) NCI-H226 cells after 48 hr by SRB assay; settings: NCI-H226, 48 h, read-out: pGI50 (converted)
[15] = tested on: HOP-62; assay: Cytotoxicity against Homo sapiens (human) HOP62 cells after 48 hr by SRB assay; settings: HOP-62, 48 h, read-out: pGI50 (converted)
[16] = tested on: HOP-92; assay: Cytotoxicity against Homo sapiens (human) HOP92 cells after 48 hr by SRB assay; settings: HOP-92, 48 h, read-out: pGI50 (converted)
[17] = tested on: RPMI-8226; assay: Cytotoxicity against Homo sapiens (human) RPMI8226 cells after 48 hr by SRB assay; settings: RPMI-8226, 48 h, read-out: pGI50 (converted)
[18] = tested on: MOLT-4; assay: Cytotoxicity against Homo sapiens (human) MOLT4 cells after 48 hr by SRB assay; settings: MOLT-4, 48 h, read-out: pGI50 (converted)
[19] = tested on: HL-60(TB); assay: Cytotoxicity against Homo sapiens (human) HL-60(TB) cells after 48 hr by SRB assay; settings: HL-60, 48 h, read-out: pGI50 (converted)
[20] = tested on: OVCAR-8; assay: Cytotoxicity against Homo sapiens (human) OVCAR8 cells after 48 hr by SRB assay; settings: OVCAR-8, 48 h, read-out: pGI50 (converted)
[21] = tested on: OVCAR-4; assay: Cytotoxicity against Homo sapiens (human) OVCAR4 cells after 48 hr by SRB assay; settings: OVCAR-4, 48 h, read-out: pGI50 (converted)
[22] = tested on: OVCAR-5; assay: Cytotoxicity against Homo sapiens (human) OVCAR5 cells after 48 hr by SRB assay; settings: OVCAR-5, 48 h, read-out: pGI50 (converted)
[23] = tested on: UACC-257; assay: Cytotoxicity against Homo sapiens (human) UACC257 cells after 48 hr by SRB assay; settings: UACC-257, 48 h, read-out: pGI50 (converted)
[24] = tested on: SK-MEL-2; assay: Cytotoxicity against Homo sapiens (human) SK-MEL-2 cells after 48 hr by SRB assay; settings: SK-MEL-2, 48 h, read-out: pGI50 (converted)
[25] = tested on: Malme-3M; assay: Cytotoxicity against Homo sapiens (human) MALME-3M cells after 48 hr by SRB assay; settings: read-out: pGI50 (converted)
[26] = tested on: M14; assay: Cytotoxicity against Homo sapiens (human) M14 cells after 48 hr by SRB assay; settings: M14, 48 h, read-out: pGI50 (converted)
[27] = tested on: U-251; assay: Cytotoxicity against Homo sapiens (human) U251 cells after 48 hr by SRB assay; settings: U-251, 48 h, read-out: pGI50 (converted)
[28] = tested on: LOX IMVI; assay: Cytotoxicity against Homo sapiens (human) LOXIMVI cells after 48 hr by SRB assay; settings: read-out: pGI50 (converted)
[29] = tested on: SW-620; assay: Cytotoxicity against Homo sapiens (human) SW620 cells after 48 hr by SRB assay; settings: SW-620, 48 h, read-out: pGI50 (converted)
[30] = tested on: HCT-116; assay: Cytotoxicity against Homo sapiens (human) HCT116 cells after 48 hr by SRB assay; settings: HCT-116, 48 h, read-out: pGI50 (converted)
[31] = tested on: HCT-15; assay: Cytotoxicity against Homo sapiens (human) HCT15 cells after 48 hr by SRB assay; settings: HCT-15, 48 h, read-out: pGI50 (converted)
[32] = tested on: HCC 2998; assay: Cytotoxicity against Homo sapiens (human) HCC2998 cells after 48 hr by SRB assay; settings: HCC 2998, 48 h, read-out: pGI50 (converted)
[33] = tested on: NCI-H23; assay: Cytotoxicity against Homo sapiens (human) NCI-H23 cells after 48 hr by SRB assay; settings: NCI-H23, 48 h, read-out: pGI50 (converted)
[34] = tested on: NCI-H322M; assay: Cytotoxicity against Homo sapiens (human) NCI-H322M cells after 48 hr by SRB assay; settings: read-out: pGI50 (converted)

`O=c1[nH]cc(F)c(=O)[nH]1` [FLUOROURACIL] was tested, and the GI50 [1] was 79.4 µM, the GI50 [2] was 100 µM and the GI50 [3] was 501 µM. For the same compound, the GI50 [4] was 10 µM, the GI50 [5] was 50.1 µM and the GI50 [6] was 5.01 µM. It also gave a GI50 [7] of 126 µM, a GI50 [8] of 25.1 µM and a GI50 [9] of 50.1 µM. The GI50 [10] was 3.98 µM, the GI50 [11] was 10 µM and the GI50 [12] was 10 µM. For the same compound, the GI50 [13] was 158 µM, the GI50 [14] was 251 µM and the GI50 [15] was 20 µM. For the same compound, the GI50 [16] was 158 µM, the GI50 [17] was 5.01 µM and the GI50 [18] was 12.6 µM. For the same compound, the GI50 [19] was 20 µM, the GI50 [20] was 20 µM and the GI50 [21] was 63.1 µM. For the same compound, the GI50 [22] was 158 µM, the GI50 [23] was 100 µM and the GI50 [24] was 398 µM. It also gave a GI50 [25] of 20 µM, a GI50 [26] of 50.1 µM and a GI50 [27] of 39.8 µM. The GI50 [28] was 6.31 µM, the GI50 [29] was 25.1 µM and the GI50 [30] was 3.98 µM. For the same compound, the GI50 [31] was 6.31 µM, the GI50 [32] was 1.58 µM and the GI50 [33] was 12.6 µM. For the same compound, the GI50 [34] was 20 µM.
